Results from ChEMBL document CHEMBL6103573, “Discovery of novel thienopyridine indole derivatives as inhibitors of tubulin polymerization targeting the colchicine-binding site with potent anticancer activities” (Eur J Med Chem, 2025).

Test system: MGC-803
Assay: Antitumor activity against human MGC-803 cells xenografted in female BALB/c-nu nude mouse assessed as tumor inhibition rate at 5 mg/kg, po administrated every other day for 11 times and measured after 21 days relative to control
Format: functional
Conditions: MGC-803, 504 h, time 21 day, read-out: TGI

## CN(c1ccc2c(ccn2C)c1)c1nc(N2CCCC2)nc2sccc12
  inhibition in vivo at 5 mg/kg: 45.8%
